Test results reported in the supplement of paper PMC11208160.

assay: recombinant UMI read abundance after kanamycin selection (control-corrected) (log10(CPM+1)); higher = more efficient recombination; extreme values may be limits of the assay; sequences stand for … in AGTGCAGAGAAAATCGGCCAGTTTTCTCTGCCTGCAGTCCGCATGCCGTGGGACCCCTTGGGTTCTAACCTGTTGCCTAGATTTATGCAGCGGACTGCCTTTCTCCCAAAGTGATAAACCGG…AGGTTGGTTTCACT; site = the 11-nt donor
How it was run: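 Reported values are log10(CPM+1) from a pooled Escherichia coli screen of donor and donor-binding-loop pairs for the IS621 bridge recombinase. Selection used IPTG (0.07 mM) plus kanamycin, against unselected plating, each in two replicates. Recombinant UMIs were amplified across the donor–target junction, sequenced, converted to CPM, averaged over replicates and scaled by control-derived factors.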
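Note: IS621 bridge recombinase in Escherichia coli cells against a fixed T5 target plasmid.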

Sequence | recombinant UMI read abundance (log10)
GTGCATGCATGGACCGGTTTTCCCGGTAATCCGTATTTGGA (site GTGCATGCTCC) | 0.296
GTGCATGCATGGACCGGTTTTCCCGGTAATCCGTATTTGGA (site GTGCATGCTGC) | 0
GTGCATGCATGGACCGGTTTTCCCGGTAATCCGTATTTGGA (site GTGCATGCTTC) | 1.28
GTGCATGCATGGACCGGTTTTCCCGGTAATCCGTATTTGGC (site GTGCATGCTAC) | 0.31
GTGCATGCATGGACCGGTTTTCCCGGTAATCCGTATTTGGC (site GTGCATGCTCC) | 0
GTGCATGCATGGACCGGTTTTCCCGGTAATCCGTATTTGGC (site GTGCATGCTGC) | 2.28
GTGCATGCATGGACCGGTTTTCCCGGTAATCCGTATTTGGC (site GTGCATGCTTC) | 0.89
GTGCATGCATGGACCGGTTTTCCCGGTAATCCGTATTTGGT (site ATGCATGCTAC) | 0.986
GTGCATGCATGGACCGGTTTTCCCGGTAATCCGTATTTGGT (site CTGCATGCTAC) | 0.457
GTGCATGCATGGACCGGTTTTCCCGGTAATCCGTATTTGGT (site GAGCATGCTAC) | 0.0372
GTGCATGCATGGACCGGTTTTCCCGGTAATCCGTATTTGGT (site GCGCATGCTAC) | 0.271
GTGCATGCATGGACCGGTTTTCCCGGTAATCCGTATTTGGT (site GGGCATGCTAC) | 0.00487
GTGCATGCATGGACCGGTTTTCCCGGTAATCCGTATTTGGT (site GTACATGCTAC) | 1.47
GTGCATGCATGGACCGGTTTTCCCGGTAATCCGTATTTGGT (site GTCCATGCTAC) | 0.00812
GTGCATGCATGGACCGGTTTTCCCGGTAATCCGTATTTGGT (site GTGAATGCTAC) | 0
GTGCATGCATGGACCGGTTTTCCCGGTAATCCGTATTTGGT (site GTGCAAGCTAC) | 0.00542
GTGCATGCATGGACCGGTTTTCCCGGTAATCCGTATTTGGT (site GTGCACGCTAC) | 0.586
GTGCATGCATGGACCGGTTTTCCCGGTAATCCGTATTTGGT (site GTGCAGGCTAC) | 0.384
GTGCATGCATGGACCGGTTTTCCCGGTAATCCGTATTTGGT (site GTGCATACTAC) | 1.69

Sequence | recombinant UMI read abundance (log10)
GTGCATGCATGGACCGGTTTTCCCGGTAATCCGTATTTGGT (site GTGCATCCTAC) | 0.318
GTGCATGCATGGACCGGTTTTCCCGGTAATCCGTATTTGGT (site GTGCATGCTAA) | 0.0107
GTGCATGCATGGACCGGTTTTCCCGGTAATCCGTATTTGGT (site GTGCATGCTAC) | 0.978
GTGCATGCATGGACCGGTTTTCCCGGTAATCCGTATTTGGT (site GTGCATGCTAG) | 0.442
GTGCATGCATGGACCGGTTTTCCCGGTAATCCGTATTTGGT (site GTGCATGCTAT) | 1.47
GTGCATGCATGGACCGGTTTTCCCGGTAATCCGTATTTGGT (site GTGCATGCTCC) | 0.0111
GTGCATGCATGGACCGGTTTTCCCGGTAATCCGTATTTGGT (site GTGCATGCTGC) | 0.451
GTGCATGCATGGACCGGTTTTCCCGGTAATCCGTATTTGGT (site GTGCATGCTTC) | 0.0184
GTGCATGCATGGACCGGTTTTCCCGGTAATCCGTATTTGGT (site GTGCATTCTAC) | 0
GTGCATGCATGGACCGGTTTTCCCGGTAATCCGTATTTGGT (site GTGCCTGCTAC) | 1.15
GTGCATGCATGGACCGGTTTTCCCGGTAATCCGTATTTGGT (site GTGCGTGCTAC) | 0.276
GTGCATGCATGGACCGGTTTTCCCGGTAATCCGTATTTGGT (site GTGCTTGCTAC) | 0.00578
GTGCATGCATGGACCGGTTTTCCCGGTAATCCGTATTTGGT (site GTGGATGCTAC) | 0.00465
GTGCATGCATGGACCGGTTTTCCCGGTAATCCGTATTTGGT (site GTGTATGCTAC) | 0.469
GTGCATGCATGGACCGGTTTTCCCGGTAATCCGTATTTGGT (site GTTCATGCTAC) | 0.448
GTGCATGCATGGACCGGTTTTCCCGGTAATCCGTATTTGGT (site TTGCATGCTAC) | 0.412
GTGCGATCATGGACCGGTTTTCCCGGTAATCCGTATTTGAC (site GTGCGATCTGT) | 1.92
GTGCGGGCATGGACCGGTTTTCCCGGTAATCCGTATTTGGT (site GTGCGGGCTAC) | 0.486
